Measurements published in the NIST ThermoML archive (doi:10.1021/je050334+).

Details: Liquid, Transpiration method

COC(=O)CCCCC(=O)OC [dimethyl 1,6-hexanedioate]
Details	vapor or sublimation pressure [kPa]
293.2 K	0.00253
296.2 K	0.00336
299.2 K	0.00443
302.2 K	0.00586
305.2 K	0.0074
308.2 K	0.00991
310.2 K	0.01133
313.3 K	0.01454
316.2 K	0.01794
319.3 K	0.02356
322.2 K	0.02831
325.3 K	0.03778
328.2 K	0.04592
331.2 K	0.05704
334.2 K	0.06981

CCOC(=O)c1ccccc1 [ethyl benzoate]
Details	vapor or sublimation pressure [kPa]
283.9 K	0.0071
286.9 K	0.0093
289 K	0.0113
292 K	0.0143
294.1 K	0.0174
295 K	0.0183
298.1 K	0.0239
299.1 K	0.0254
301.2 K	0.0312
304.2 K	0.039
307.2 K	0.0472
310.1 K	0.0597
312.3 K	0.0716
315.3 K	0.0862
317.3 K	0.1055
320.3 K	0.1297
323.4 K	0.1656
326.4 K	0.2016
329.5 K	0.2452
332.5 K	0.2944
